Source: ChEMBL document CHEMBL1131795, “The spiroketals containing a benzyloxymethyl moiety at C8 position showed the most potent apoptosis-inducing activity” (1999)

Columns and labels:
Type in all cases: functional
[1] = species: Homo sapiens; assay: Cell viability of serum-deprived Jurkat cells were determined, 24 hours after incubation with 20 uM concentration of the compound, by MTT-assay
[2] = species: Homo sapiens; assay: Cell viability of serum-deprived Jurkat cells were determined, 24 hours after incubation with 100 uM concentration of the compound, by MTT-assay
[3] = species: Homo sapiens; assay: Concentration required to cause death of human T cell leukemia Jurkat cell was determined; details: read-out: LC50 (the source's name)

For C[C@@H]1CCCO[C@]12O[C@H](CO)[C@@H](C)C[C@H]2S(=O)(=O)c1ccccc1, the Cell viability [1] was 67.1% and the Cell viability [2] was 39%.

C[C@@H]1CCCO[C@@]12CC[C@H](C)[C@@H](COC1CCCCO1)O2 (some centres not stated) showed a Cell viability [1] of 84.1% and a Cell viability [2] of 60.1%.

Work on C[C@@H]1CCCO[C@@]12CC[C@H](C)[C@@H](CO)O2 yielded a Cell viability [1] of 86% and a Cell viability [2] of 43.8%.

In the case of C[C@@H]1CCCO[C@@]12CC[C@H](C)[C@@H](COCOCc1ccccc1)O2, the CC50 [3] is reported as 32 µM, the Cell viability [1] is reported as 77.9% and the Cell viability [2] is reported as 0.3%.

For C[C@@H]1CCCO[C@]12O[C@H](CO[Si](c1ccccc1)(c1ccccc1)C(C)(C)C)[C@@H](C)C[C@H]2S(=O)(=O)c1ccccc1, the Cell viability [1] was 79.5% and the Cell viability [2] was 68.4%.

C[C@@H]1CCCO[C@@]12CC[C@H](C)[C@@H](CO[Si](c1ccccc1)(c1ccccc1)C(C)(C)C)O2 was tested, and the Cell viability [1] was 38.2% and the Cell viability [2] was 43%.

C[C@@H]1CCCO[C@@]12CCCCO2 showed a Cell viability [1] of 98.6% and a Cell viability [2] of 87.4%.

COCOC[C@H]1O[C@@]2(CC[C@@H]1C)OCCC[C@H]2C was tested, and the Cell viability [1] was 89.1% and the Cell viability [2] was 81.5%.

C[C@@H]1CCCO[C@@]12CC[C@H](C)[C@@H](COCc1ccccc1)O2 showed a CC50 [3] of 14 µM, a Cell viability [1] of 1.7% and a Cell viability [2] of 0%.

CC1CC[C@]2(CCCCO2)OC1 (some centres not stated) gave a Cell viability [1] of 97.7% and a Cell viability [2] of 84.6%.
